“Also recorded” adds a separate entry of the source. Read-outs that look alike come from different tables or passages of the source.
Key:
BZD (peripheral) = target: T1, BZD (peripheral) (Rattus norvegicus, UniProt P16257); assay: radio-ligand binding competition, peripheral benzodiazepine receptor ([3H]PK 11195); conditions: for IC50: displacement of [3H]PK 11195; for inhibition of binding of [3H]PK 11195 (FIG. 1): increasing concentrations; for % Inhibition of Control Specific Binding: second round, individual EET isomers, 3 μM
T1 construct: containing 0.2 mg of cardiac membrane protein and the radioactive ligand; tissue CEREP (contract assay); host or cells: rat heart ventricular membranes

Cannabinoid CB2 = target: T2, Cannabinoid CB2 (Homo sapiens, UniProt P34972); assay: radio-ligand binding competition, CB2 ([3H]WIN 55212-2); conditions: for % Inhibition of Control Specific Binding: individual EET isomers, 3 μM
T2 construct: host or cells: CHO cells

Dopamine D3 = Dopamine D3 (Homo sapiens, UniProt P35462); assay: radio-ligand binding competition, D3; conditions: for IC50: displacement of high affinity ligand; for % Inhibition of Control Specific Binding: second round, individual EET isomers, 3 μM
Neurokinin NK2 = target: T3, Neurokinin NK2 (Homo sapiens, UniProt P21452); assay: radio-ligand binding competition, NK2; conditions: for IC50: displacement of high affinity ligand; for % Inhibition of Control Specific Binding: second round, individual EET isomers, 3 μM
T3 sequence (P21452 1-398): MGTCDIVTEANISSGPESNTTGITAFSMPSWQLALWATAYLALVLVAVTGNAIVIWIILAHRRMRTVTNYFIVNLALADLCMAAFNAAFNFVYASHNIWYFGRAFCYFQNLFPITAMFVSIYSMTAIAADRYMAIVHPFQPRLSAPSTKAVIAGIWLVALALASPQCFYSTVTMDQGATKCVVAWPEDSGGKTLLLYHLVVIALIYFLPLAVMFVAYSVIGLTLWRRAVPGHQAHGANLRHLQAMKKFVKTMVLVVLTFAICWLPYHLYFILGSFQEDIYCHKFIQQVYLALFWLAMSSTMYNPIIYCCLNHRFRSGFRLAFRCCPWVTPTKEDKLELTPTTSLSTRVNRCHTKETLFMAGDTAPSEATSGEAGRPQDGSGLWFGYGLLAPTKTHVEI

[1] = test system: LPS-elicited thermal hyperalgesia; assay: LPS-elicited inflammatory pain model, hindpaw thermal withdrawal latency; format: in vivo, rat; conditions: for effect on response to LPS administration: agent + LPS, no sEHI (FIG. 2D); for effect on baseline TWL response: agent by itself, no LPS (FIG. 2C); for effect on the antihyperalgesic action of sEHI AEPU: topical, with LPS + AEPU (FIGS. 2A, 2B, 4); for effect on sEHI-elicited analgesia: with LPS + sEHI compound 950, two hours post LPS (FIG. 5)
Method: Inflammatory pain model: The nociception response was measured using the hind paw withdrawal latency test modified after Hargreaves at al., Pain, 32(1):77-88 (1988). Male Sprague-Dowley rats weighing 240-260 g, are individually housed at UC Davis Animal Resource Facility under standard conditions with free access to food and water, and maintained for at least 1 week before the experiments. On the day of the experiments, the animals' basal response is measured and then compounds are topically administered preceding an injection with 10 ug of endotoxin (1Lipopolysaccharide, “LPS”, Sigma-Aldrich, St. Louis, Mo.). Nociceptive response is then measured at 120 minutes post-LPS injection. Compounds are formulated by dissolving them in ethanol and mixing with cream in a ratio of 1:8. Eight animals per group are used. A dose response curve is obtained by administering increasing concentrations of EETs and measuring nociceptive response.
Behavioral nociceptive testing was conducted by assessing thermal hindpaw withdrawal latencies (“TWL”) using a commercial Hargreaves (Hargreaves et al., A new and sensitive method for measuring thermal nociception in cutaneous hyperalgesia. Pain 32:77-88 (1988)) apparatus (IITC Life Science Inc., Woodland Hills, Calif.). Male Sprague-Dawley rats weighing 240-250 g, were individually housed at the UC Davis Animal Resource Facility under standard conditions with free access to food and water, and maintained for at least 1 week before the experiments. On the day of the experiment, the rats were transferred to a quiet room, acclimated for 1 h, and their baseline responses measured. In pilot experiments, the intensity of the thermal stimulus was set to produce a baseline TWL of 7-8 s. Following baseline measurements, rats were first treated with 200 μl of vehicle or compound-formulated cream by topical application to one hind paw. Compounds (including sEHI, steroid synthesis inhibitors, steroid receptor antagonists, and cannabinoid receptor antagonists, as shown in the Figure legends) were formulated by dissolving them in ethanol and mixing with Vanicream® (Pharmaceutical Specialties, Inc., Rochester, Minn.) in a ratio of 1:9. The cream was thoroughly massaged across the entire hind paw surface over a 2 min period. After 1.5 hours rats were treated with 200 μl of sEHI formulated cream. Within 10 min of sEHI application, lipopolysaccharide (“LPS”, 10 μg in 50 μl 0.9% NaCl) was injected subcutaneously into the plantar surface of the treated paw. Immediately following LPS injection, animals were placed in acrylic chambers on a glass platform maintained at a temperature of 30±1° C. for TWL-measurement. During TWL measurement, a beam of radiant heat was focused onto the mid-portion of the plantar surface of the treated hind paw until the rat moved its stimulated hindpaw abruptly away from the heat stimulus. The duration of heat application necessary to elicit a withdrawal was designated as TWL. A maximum stimulus duration of 22 s was imposed to prevent tissue damage. Five TWL measurements were taken at 3-4 min interstimulus intervals for each of the time points following treatment. The three median TWLs were averaged for each animal at each time point.

[2] = metabolomic analysis of oxylipids and prostaglandins in LPS-treated animals; format: in vivo
Description: (In FIG. 3A, the bar presenting the results for the metabolite 6-keto-PGF1a for one group of animals exceeded the scale, as shown by a break in the bar and the statement of the result in ng/mL about the bar). FIG. 3A. […] FIG. 3C. […] All three graphs: bars with lines rising from left to right (e.g., in FIG. 3A, the “sum of DHETs”) present results for untreated (naïve) animals, bars with lines falling from left to right present results for animals treated with LPS, bars with cross-hatching present results for the animals treated with LPS and the sEH inhibitor AEPU, and bars with horizontal lines present the results for animals treated with LPS, AEPU, and the steroid synthesis inhibitor aminogluthetimide (“AGL”). The metabolites chosen for study show the effect on different pathways by which arachidonic acid is metabolized. ΣEpOMEs and ΣDiHOMEs are indicators of the P450 pathway, HETEs are an indicator of how much arachidonic acid is going through the 5-lipoxygenase pathway and 6-keto-PGF1a, and PGE2 are indicators of the arachidonic acid metabolized by the cyclooxygenase pathway. 6-keto-PGF1a and TXB2 are stable metabolites of PGI2 and thromboxane A2 which have been implicated in increased risk for stroke and heart attack. HODEs are lipoxygenase-derived fatty acid metabolites.
See, FIG. 3. This means that inhibition of sEH is not only effective against inflammatory pain but also effective in other types of pain that are not necessarily modulated by prostanoid levels. Indeed, non-inflammatory types of pain are known to be not well addressed by COX inhibitors. The levels of EETs and DHETs, however, correlated well with the nociceptive end result.

CB2 over CB1 = conditions: cited from earlier work
[3] = test system: CAR induced local thermal hyperalgesia; assay: carrageenan-induced thermal hyperalgesia model; format: in vivo; conditions: topical, 20 hours post 2% carrageenan
Method: Using a second distinct inflammatory model, hyperalgesia was induced by intraplantar injection of 2% carrageenan (CAR) and sEH inhibitors were again delivered topically 20 hours post CAR injection.

[4] = displacement of high affinity ligand, read-out: IC50, CB2
[5] = AGL+AEPU vs AEPU-administered animals

Chain of Dopamine D3 (P35462 whole entry): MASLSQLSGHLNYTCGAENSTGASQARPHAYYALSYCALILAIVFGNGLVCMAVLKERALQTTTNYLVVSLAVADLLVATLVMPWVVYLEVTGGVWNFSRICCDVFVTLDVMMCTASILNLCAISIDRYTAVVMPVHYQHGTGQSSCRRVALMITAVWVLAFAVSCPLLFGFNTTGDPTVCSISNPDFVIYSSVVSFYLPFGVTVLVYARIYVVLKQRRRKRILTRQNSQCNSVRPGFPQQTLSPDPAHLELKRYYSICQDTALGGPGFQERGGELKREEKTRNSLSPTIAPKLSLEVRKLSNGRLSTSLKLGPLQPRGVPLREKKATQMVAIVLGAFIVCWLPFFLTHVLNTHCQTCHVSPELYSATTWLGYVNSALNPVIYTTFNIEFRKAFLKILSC
T2 sequence (P34972 whole entry): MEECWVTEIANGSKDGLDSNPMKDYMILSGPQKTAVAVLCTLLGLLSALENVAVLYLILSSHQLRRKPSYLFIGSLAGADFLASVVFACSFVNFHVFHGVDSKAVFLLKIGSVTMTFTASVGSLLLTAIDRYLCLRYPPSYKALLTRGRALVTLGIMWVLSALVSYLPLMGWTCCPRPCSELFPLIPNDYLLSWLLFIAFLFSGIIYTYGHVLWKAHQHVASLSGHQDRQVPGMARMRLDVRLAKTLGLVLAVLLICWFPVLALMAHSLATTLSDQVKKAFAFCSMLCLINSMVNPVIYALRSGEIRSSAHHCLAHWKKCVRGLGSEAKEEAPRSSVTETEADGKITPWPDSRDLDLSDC

## CCCCC/C=C\C/C=C\C/C=C\CC1OC1CCCC(=O)OC (stereo not shown) [5,6 EET-me]
BZD (peripheral)
  IC50: 12 µM
Cannabinoid CB2; [4]
  IC50: 20 µM
Dopamine D3
  IC50: > 100 µM
Neurokinin NK2
  IC50: 36 µM

## CCCCC/C=C\C/C=C\C/C=C\CC1OC1CCCC(=O)O (stereo not shown) [5,6-EET]
BZD (peripheral)
  inhibition of binding of [3H]PK 11195 (FIG. 1): completely inhibit
  % Inhibition of Control Specific Binding: 27%
Cannabinoid CB2; second round
  % Inhibition of Control Specific Binding: 25%
Dopamine D3
  % Inhibition of Control Specific Binding: 18%
Neurokinin NK2
  % Inhibition of Control Specific Binding: 25%

## CCCCC/C=C\C/C=C\CC1OC1C/C=C\CCCC(=O)OC (stereo not shown) [8,9 EET-me]
BZD (peripheral)
  IC50: > 100 µM
Cannabinoid CB2; [4]
  IC50: > 100 µM
Dopamine D3
  IC50: > 100 µM
Neurokinin NK2
  IC50: > 100 µM

## CCCCC/C=C\C/C=C\CC1OC1C/C=C\CCCC(=O)O (stereo not shown) [8,9-EET]
BZD (peripheral)
  % Inhibition of Control Specific Binding: 11%
Cannabinoid CB2; second round
  % Inhibition of Control Specific Binding: −2%
Dopamine D3
  % Inhibition of Control Specific Binding: 9%
Neurokinin NK2
  % Inhibition of Control Specific Binding: 10%

## CCCCC/C=C\CC1OC1C/C=C\C/C=C\CCCC(=O)OC (stereo not shown) [11,12 EET-me]
BZD (peripheral)
  IC50: 140 µM
Cannabinoid CB2; [4]
  IC50: > 100 µM
Dopamine D3
  IC50: > 100 µM
Neurokinin NK2
  IC50: > 100 µM

## CCCCC/C=C\C[C@H]1O[C@H]1C/C=C\C/C=C\CCCC(=O)O [11,12-EET]
BZD (peripheral)
  inhibition of binding of [3H]PK 11195 (FIG. 1): completely inhibit
  % Inhibition of Control Specific Binding: 28%
Cannabinoid CB2; second round
  % Inhibition of Control Specific Binding: 3%
Dopamine D3
  % Inhibition of Control Specific Binding: 6%
Neurokinin NK2
  % Inhibition of Control Specific Binding: 1%

## CCCCCC1OC1C/C=C\C/C=C\C/C=C\CCCC(=O)OC (stereo not shown) [14,15 EET-me]
BZD (peripheral)
  IC50: 12 µM
Cannabinoid CB2; [4]
  IC50: > 100 µM
Dopamine D3
  IC50: > 100 µM
Neurokinin NK2
  IC50: > 100 µM

## CCCCCC1OC1C/C=C\C/C=C\C/C=C\CCCC(=O)O (stereo not shown) [14,15-EET]
BZD (peripheral)
  inhibition of binding of [3H]PK 11195 (FIG. 1): completely inhibit
  % Inhibition of Control Specific Binding: 45%
Cannabinoid CB2; second round
  % Inhibition of Control Specific Binding: 5%
Dopamine D3
  % Inhibition of Control Specific Binding: 10%
Neurokinin NK2
  % Inhibition of Control Specific Binding: 8%

## CCC1(c2ccc(N)cc2)CCC(=O)NC1=O (stereo not shown) [AGL]
[1]
  effect on response to LPS administration: do not they modify
  effect on baseline TWL response: no impact
  effect on the antihyperalgesic action of sEHI AEPU: completely blocked; also recorded: clearly hyperalgesic
[2]; [5]
  levels of DHETs: increased
  levels of EETs: significantly reduced
[2]; AGL+LPS+AEPU vs AEPU+LPS or LPS only (FIG. 3)
  PGE2 levels: significantly lower

## Cc1c(C(=O)NN2CCCCC2)nn(-c2ccc(Cl)cc2Cl)c1-c1ccc(I)cc1 [AM251, N-(piperidin-1-yl)-5-(4-iodophenyl)-1-(2,4-dichlorophenyl)-4-methy 1-1H-pyrazole-3-carboxamide]
[1]
  effect on sEHI-elicited analgesia: did not block

## COc1ccc(C(=O)c2c(C)n(CCN3CCOCC3)c3cc(I)ccc23)cc1 [AM630, iodopravadoline]
[1]
  effect on sEHI-elicited analgesia: completely blocked

## CN1CCCCC1Cn1cc(C(=O)c2cc([N+](=O)[O-])ccc2I)c2ccccc21 (stereo not shown) [AM1241]
CB2 over CB1
  selectivity for CB2 over CB1: 340 fold

## CCCCOC(=O)CCCCCCCCCCCNC(=O)NC12CC3CC(CC(C3)C1)C2 [AUDA-be, 12-(3-Adamantan-1-yl-ureido)dodecanoic acid butyl ester]
[1]; topical administration
  attenuation of LPS-elicited thermal hyperalgesia: prophylactic effect
[3]
  effect on CAR induced thermal hyperalgesia: blocked CAR induced local thermal hyperalgesia effectively; also recorded: effective therapeutically in reversing thermal hyperalgesia

## CC(C)(C)NC(=O)[C@H]1CC[C@H]2[C@@H]3CC[C@H]4NC(=O)C=C[C@]4(C)[C@H]3CC[C@]12C [Finasteride]
[1]
  effect on response to LPS administration: do not they modify
  effect on baseline TWL response: no impact
  effect on the antihyperalgesic action of sEHI AEPU: blocked

## Cc1c(C(=O)c2cccc3ccccc23)c2cccc3c2n1C(CN1CCOCC1)CC3=O (stereo not shown) [WIN55212-2, 4,5-dihydro-2-methyl-4(4-morpholinylmethyl)-1-(1-naphthalenylcarbonyl)-6H-pyrrolo[3,2,1ij]quinolin-6-one, reference compound]
Cannabinoid CB2; reference compound, first round, read-out: IC50 Ref (affinity of reference compound)
  IC50: 0.0076 µM
Cannabinoid CB2; reference compound, second round, read-out: IC50 Ref
  IC50: 0.0027 µM

## CC#C[C@]1(O)CC[C@H]2[C@@H]3CCC4=CC(=O)CCC4=C3[C@@H](c3ccc(N(C)C)cc3)C[C@@]21C [mifepristone]
[1]
  effect on the antihyperalgesic action of sEHI AEPU: did not have any impact

## CC1(C)NC(=O)N(c2ccc([N+](=O)[O-])c(C(F)(F)F)c2)C1=O [nilutamide]
[1]
  effect on the antihyperalgesic action of sEHI AEPU: did not have any impact

## CC(=O)S[C@@H]1CC2=CC(=O)CC[C@]2(C)[C@H]2CC[C@@]3(C)[C@@H](CC[C@@]34CCC(=O)O4)[C@H]12 [spironoloactone]
[1]
  effect on the antihyperalgesic action of sEHI AEPU: did not have any impact

## CC/C(=C(\c1ccccc1)c1ccc(OCCN(C)C)cc1)c1ccccc1 [tamoxifen]
[1]
  effect on the antihyperalgesic action of sEHI AEPU: did not have any impact
